Experimental data: publication PMC11409717, “Three separate pathways in Rhizobium leguminosarum maintain phosphatidylcholine biosynthesis, which is required for symbiotic nitrogen fixation with clover” (Applied and Environmental Microbiology, 2024)

Legend:
PmtR1 = biological target: T1, PmtR1 (Rhizobium leguminosarum, UniProt A0A2Z4YNE2); experiment: in vitro methylation, lipid extraction and TLC with CuSO4 stain; assay type: biochemical; conditions: SAM; […] KH2PO4 pH […]; […] Triton X-100; […] °C, […] h; with or without PG or CL
T1 construct: gene DLJ82_4359; His-tagged, pET24b, E. coli BL21 (DE3), Ni-IDA and SEC; 23-25 kDa
T1 sequence (A0A2Z4YNE2 1-217): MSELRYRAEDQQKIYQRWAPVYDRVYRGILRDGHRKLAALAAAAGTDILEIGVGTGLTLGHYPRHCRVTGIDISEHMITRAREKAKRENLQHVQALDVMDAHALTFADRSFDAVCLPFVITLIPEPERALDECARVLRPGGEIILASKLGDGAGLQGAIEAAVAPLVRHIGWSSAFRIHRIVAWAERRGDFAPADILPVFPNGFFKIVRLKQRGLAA

PmtS2 = biological target: T2, PmtS2 (Rhizobium leguminosarum, UniProt A0A2Z4YJT5); experiment: as above; assay type: biochemical; conditions: SAM; […] KH2PO4 pH […]; […] Triton X-100; […] °C, […] h; with or without PG or CL
T2 construct: gene DLJ82_3306; His-tagged, synthetic gene in pET28b, E. coli BL21 (DE3), Ni-IDA and SEC, one unknown co-purifying protein; 23-25 kDa
T2 sequence (A0A2Z4YJT5 1-199): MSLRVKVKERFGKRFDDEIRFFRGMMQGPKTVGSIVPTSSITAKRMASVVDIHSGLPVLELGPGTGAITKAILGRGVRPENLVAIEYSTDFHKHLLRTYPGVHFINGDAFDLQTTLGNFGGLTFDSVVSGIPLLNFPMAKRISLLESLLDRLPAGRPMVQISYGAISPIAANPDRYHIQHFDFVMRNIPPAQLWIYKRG

Pcs = biological target: T3, Pcs (Rhizobium redzepovicii, UniProt A0AAW8P1U5); experiment: TLC of lipids from expressing E. coli cells, CuSO4 stain; assay type: cell-based; conditions: endogenous CDP-DAG, 30 °C, 20 h
T3 construct: pET28b (NdeI/XhoI), expressed in E. coli BL21 (DE3) cells, not purified
T3 sequence (A0AAW8P1U5 1-242): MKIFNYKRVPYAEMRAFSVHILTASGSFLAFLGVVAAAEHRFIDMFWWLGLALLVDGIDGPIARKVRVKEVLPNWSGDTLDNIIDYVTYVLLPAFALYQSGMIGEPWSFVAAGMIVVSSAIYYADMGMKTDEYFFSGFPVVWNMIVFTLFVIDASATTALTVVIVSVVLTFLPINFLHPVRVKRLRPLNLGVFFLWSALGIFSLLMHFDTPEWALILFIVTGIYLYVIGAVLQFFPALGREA

PmtS1 = biological target: T4, PmtS1 (Rhizobium leguminosarum, UniProt A0A2Z4YHW5); experiment: in vitro methylation, lipid extraction and TLC with CuSO4 stain; assay type: biochemical; conditions: SAM; […] KH2PO4 pH […]; […] Triton X-100; […] °C, […] h; with or without PG or CL
T4 construct: gene DLJ82_3449; His-tagged, pET24b, E. coli BL21 (DE3), Ni-IDA and buffer exchange only (partly pure); 23-25 kDa
T4 sequence (A0A2Z4YHW5 1-223): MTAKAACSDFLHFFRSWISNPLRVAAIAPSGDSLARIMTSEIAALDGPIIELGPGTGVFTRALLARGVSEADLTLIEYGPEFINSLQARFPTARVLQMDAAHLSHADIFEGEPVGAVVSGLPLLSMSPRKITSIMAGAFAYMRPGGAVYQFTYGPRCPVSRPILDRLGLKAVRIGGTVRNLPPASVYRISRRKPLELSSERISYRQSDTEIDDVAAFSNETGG

Row | Structure (SMILES) | in vitro methylation, lipid extraction and TLC with CuSO4 stain (PmtR1) | in vitro methylation, lipid extraction and TLC with CuSO4 stain (PmtS2) | also measured
1 | CCCCCCCC/C=C\CCCCCCCC(=O)OC[C@H](COP(=O)(O)OCCNC)OC(=O)CCCCCCC/C=C\CCCCCCCC [MMPE, 1,2-dioleoyl-sn-glycero-3-phosphoethanolamine-N-methyl] | When MMPE was employed as a substrate, only barely detectable amounts of PC were synthesized |  | 
2 | CCCCCCCC/C=C\CCCCCCCC(=O)OC[C@H](COP(=O)(O)OCCN(C)C)OC(=O)CCCCCCC/C=C\CCCCCCCC [DMPE, 1,2-dioleoyl-sn-glycero-3-phosphoethanolamine-N,N-dimethyl] | DMPE proved to be the most efficiently used substrate for PmtR1 | DMPE was methylated to PC, and this activity was stimulated by PG | 
3 | CN(C)CCO [DMEA, 2-(dimethylamino)ethanol] |  |  | TLC of lipids from expressing E. coli cells, CuSO4 stain (Pcs; M9 minimal medium with 1 mM DMEA): effectively converting these methylated substrates into MMPE and DMPE (Fig. 2B)
4 | CCCCCCCC/C=C\CCCCCCCC(=O)OC[C@H](COP(=O)(O)OCCN)OC(=O)CCCCCCC/C=C\CCCCCCCC [PE, 1,2-dioleoyl-sn-glycero-3-phosphoethanolamine] |  | PE was methylated to MMPE and small amounts of DMPE and PC | in vitro methylation, lipid extraction and TLC with CuSO4 stain (PmtS1): the conversion of only PE to MMPE by the purified protein (Fig. 4A)
5 | C[N+](C)(C)CCO [choline] |  |  | TLC of lipids from expressing E. coli cells, CuSO4 stain (Pcs; M9 minimal medium with 1 mM choline): PC formation was restored upon choline supplementation (Fig. 2B)
